Experimental data from patent US10155743B2, “Glutarimide derivatives, use thereof, pharmaceutical composition based thereon and methods for producing glutarimide derivatives” (OBSCHESTVO S OGRANICHENNOI OTVETSTVENNOSTIYU …, priority 2013, dated 2018).
Read-outs that look alike come from different tables or passages of the source.

Tested on: human virus hRSV adapted to the growth in mouse lungs
Assay: animal or person
Format: in vivo
Conditions: for Body weight of the mice after infection with hRSV, Day 5 / Body weight of the mice after infection with hRSV, Day 7: 30 mg/kg orally once daily for 5 days from 24 h after infection, M ± SD, n = 6; for hRSV viral titer in mouse lungs, Day 5, lg / hRSV viral titer in mouse lungs, Day 7, lg: 30 mg/kg orally once daily for 5 days, 10% lung suspension titrated in Hep-2 cell culture, TCID; for log reduction at 30 mg/kg: human respiratory syncytial virus, po, 120 h
[1] = read-out: Suppression of the reproduction of hRSV virus in mouse lungs, Day 5, Δlg
[2] = read-out: Suppression of the reproduction of hRSV virus in mouse lungs, Day 7, Δlg

| Compound | Body weight of the mice after infection with hRSV, Day 5 | Body weight of the mice after infection with hRSV, Day 7 | hRSV viral titer in mouse lungs, Day 5, lg | hRSV viral titer in mouse lungs, Day 7, lg | log reduction at 30 mg/kg [1] | log reduction at 30 mg/kg [2] |
| --- | --- | --- | --- | --- | --- | --- |
| Cn1cnc(CCN2C(=O)CCCC2=O)c1 [Compound 5] | 16.02 ± 0.16 | 17.78 ± 0.26 | 2.17 ± 0.37 lg | 0.88 ± 0.31 lg | 2.43 ± 0.37 | 2.93 ± 0.31 |
| O=C1CCCC(=O)N1CCc1cccnc1 [Compound 10, 1-[2-(1H-pyridyl-3-yl)ethyl]piperidine-2,6-dione] | 16.18 ± 0.29 | 16.53 ± 0.20 | – | – | – | – |
| O=C1CCCC(=O)N1CCC1CCNCC1 [Compound 123] | 15.87 ± 0.20 | 17.55 ± 0.53 | 2.50 ± 0.43 lg | 1.33 ± 0.19 lg | 2.1 ± 0.43 | 2.62 ± 0.5 |
| O=C1CCCC(=O)N1CCc1nc2ccccc2[nH]1 [Compound 124] | 16.43 ± 0.26 | 16.37 ± 0.43 | 2.46 ± 0.22 lg | 0.83 ± 0.37 lg | 2.14 ± 0.22 | 2.97 ± 0.37 |
| O=C1CCCC(=O)N1CCc1ncc[nH]1 [Compound 8] | 15.18 ± 0.18 | 17.13 ± 0.27 | – | – | – | – |
| O=C1CCCC(=O)N1CCc1ccncc1 [Compound 9] | 15.75 ± 0.33 | 16.18 ± 0.29 | – | – | – | – |
| O=C1CCCC(=O)N1CCc1cnc[nH]1 [Compound 1, 1-(2-(1H-imidazol-4-yl)ethyl)piperidine-2,6-dione] | 16.43 ± 0.14 | 17.98 ± 0.26 | 2.88 ± 0.59 lg | 1.46 ± 0.17 lg | 1.73 ± 0.59 | 2.34 ± 0.17 |
| O=C1CCCC(=O)N1CCc1nccs1 [Compound 6] | 16.47 ± 0.26 | 17.02 ± 0.29 | – | – | – | – |
| CC1(C)CC(=O)N(CCc2cnc[nH]2)C(=O)C1 [Compound 3] | 16.65 ± 0.28 | 17.32 ± 0.25 | 3.04 ± 0.42 lg | 1.46 ± 0.17 lg | 1.56 ± 0.42 | 2.18 ± 0.28 |
| O=C1CCCC(=O)N1CCC1CCCCN1 (stereo not shown) [Compound 122] | 16.93 ± 0.32 | 16.37 ± 0.21 | 3.04 ± 0.44 lg | 1.75 ± 0.41 lg | 1.56 ± 0.44 | 1.88 ± 0.47 |
| O=C1CCCC(=O)N1CCc1nc2ccccc2s1 [Compound 7, 1-[2-(1H-benzothiazol-2-yl)ethyl]piperidine-2-dione] | 17.17 ± 0.26 | 18.53 ± 0.55 | – | – | – | – |
| O=C1CCCC(=O)N1CCN1CCOCC1 [Compound 117] | 16.07 ± 0.12 | 16.48 ± 0.28 | 3.00 ± 0.41 lg | 1.46 ± 0.24 lg | 1.6 ± 0.41 | 2.22 ± 0.34 |
| O=C1CCCC(=O)N1CCC1CCNC1 (stereo not shown) [Compound 120] | 16.12 ± 0.27 | 17.22 ± 0.20 | 3.04 ± 0.47 lg | 1.50 ± 0.25 lg | 1.56 ± 0.47 | 2.05 ± 0.25 |
| O=C1CCCC(=O)N1CCC1CCCNC1 (stereo not shown) [Compound 121] | 16.35 ± 0.20 | 17.38 ± 0.29 | 3.08 ± 0.47 lg | 1.50 ± 0.14 lg | 1.52 ± 0.47 | 2.09 ± 0.22 |
| O=C1CCCC(=O)N1CCC1CCCN1 (stereo not shown) [Compound 4] | 16.77 ± 0.20 | 17.08 ± 0.32 | 2.58 ± 0.51 lg | 1.38 ± 0.24 lg | 2.02 ± 0.51 | 2.58 ± 0.53 |
